How the values were obtained:
Test in all cases: relative viability (nuclei count vs DMSO), 5 days (fraction); higher = more cells survive
[1] = compound: C=CCNC1=C2C[C@@H](C)C[C@H](OC)[C@H](O)[C@@H](C)/C=C(\C)[C@H](OC(N)=O)[C@@H](OC)/C=C\C=C(/C)C(=O)NC(=CC1=O)C2=O [17-AAG] + O=C(CCCCCCC(=O)Nc1ccccc1)NO [Vorinostat] (partner 1 µM)
Procedure, shortened: (§1)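 Five library-drug doses in √10 steps were combined with a fixed anchor-drug dose, or a single drug was given alone, by pin tool to lung cancer cell lines in 1536-well plates the day after seeding. Nuclei were stained and counted after 5 days. Relative viability is the nuclei count in treated wells over that in vehicle wells, taken as the median of duplicate plates.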

[2] = compound: C=CCNC1=C2C[C@@H](C)C[C@H](OC)[C@H](O)[C@@H](C)/C=C(\C)[C@H](OC(N)=O)[C@@H](OC)/C=C\C=C(/C)C(=O)NC(=CC1=O)C2=O [17-AAG] + Cc1nc(Nc2ncc(C(=O)Nc3c(C)cccc3Cl)s2)cc(N2CCN(CCO)CC2)n1 [Dasatinib] (partner 0.075 µM)
Procedure, shortened: as §1

[3] = compound: C=CCNC1=C2C[C@@H](C)C[C@H](OC)[C@H](O)[C@@H](C)/C=C(\C)[C@H](OC(N)=O)[C@@H](OC)/C=C\C=C(/C)C(=O)NC(=CC1=O)C2=O [17-AAG] + C[C@@H](Oc1cc(-c2cnn(C3CCNCC3)c2)cnc1N)c1c(Cl)ccc(F)c1Cl [Crizotinib] (partner 1 µM)
Procedure, shortened: as §1

[4] = compound: C=CCNC1=C2C[C@@H](C)C[C@H](OC)[C@H](O)[C@@H](C)/C=C(\C)[C@H](OC(N)=O)[C@@H](OC)/C=C\C=C(/C)C(=O)NC(=CC1=O)C2=O [17-AAG] + CC1(C)CCC(c2ccc(Cl)cc2)=C(CN2CCN(c3ccc(C(=O)NS(=O)(=O)c4ccc(N[C@H](CCN5CCOCC5)CSc5ccccc5)c(S(=O)(=O)C(F)(F)F)c4)cc3)CC2)C1 [Navitoclax] (partner 0.5 µM)
Procedure, shortened: as §1

| Cell Line | relative viability ([1]; first compound 0.00128 µM) | relative viability ([1]; first compound 0.004048 µM) | relative viability ([1]; first compound 0.0128 µM) | relative viability ([1]; first compound 0.04048 µM) | relative viability ([1]; first compound 0.128 µM) | relative viability ([2]; first compound 0.00128 µM) | relative viability ([2]; first compound 0.004048 µM) | relative viability ([2]; first compound 0.0128 µM) | relative viability ([2]; first compound 0.04048 µM) | relative viability ([2]; first compound 0.128 µM) | relative viability ([3]; first compound 0.00128 µM) | relative viability ([3]; first compound 0.004048 µM) | relative viability ([3]; first compound 0.0128 µM) | relative viability ([3]; first compound 0.04048 µM) | relative viability ([3]; first compound 0.128 µM) | relative viability ([4]; first compound 0.00128 µM) | relative viability ([4]; first compound 0.004048 µM) | relative viability ([4]; first compound 0.0128 µM) | relative viability ([4]; first compound 0.04048 µM) | relative viability ([4]; first compound 0.128 µM) |
| --- | --- | --- | --- | --- | --- | --- | --- | --- | --- | --- | --- | --- | --- | --- | --- | --- | --- | --- | --- | --- |
| H3255 | 0.898 | 0.864 | 0.82 | 0.282 | 0.292 | 0.427 | 0.345 | 0.374 | 0.204 | 0.207 | 0.926 | 0.833 | 0.646 | 0.196 | 0.161 | 0.489 | 0.66 | 0.547 | 0.0858 | 0.107 |
| EPLC-272H | 0.398 | 0.426 | 0.109 | 0.115 | 0.0985 | 0.436 | 0.387 | 0.205 | 0.0643 | 0.0761 | 0.956 | 0.872 | 1.01 | 0.672 | 0.338 | 1.11 | 1.21 | 1.02 | 1.06 | 0.225 |
| RERF-LC-KJ | 0.796 | 0.686 | 0.475 | 0.321 | 0.222 | 0.742 | 0.833 | 0.276 | 0.266 | 0.248 | 0.894 | 0.831 | 0.901 | 0.616 | 0.232 | 1.09 | 0.747 | 0.712 | 0.254 | 0.234 |
| NCI-H1793 | 0.687 | 0.656 | 0.283 | 0.189 | 0.148 | 0.437 | 0.243 | 0.14 | 0.122 | 0.129 |  |  |  |  |  | 0.346 | 0.323 | 0.228 | 0.192 | 0.151 |
| EKVX | 0.783 | 0.802 | 0.719 | 0.423 | 0.567 | 0.414 | 0.542 | 0.472 | 0.343 | 0.229 | 1.07 | 0.902 | 0.951 | 0.529 | 0.114 | 0.997 | 0.937 | 0.934 | 0.242 | 0.165 |
| ChaGo-K-1 | 0.749 | 0.776 | 0.691 | 0.49 | 0.214 | 0.507 | 0.636 | 0.464 | 0.335 | 0.186 | 1.11 | 1.07 | 1.03 | 0.628 | 0.293 | 0.949 | 1.11 | 0.897 | 0.441 | 0.273 |
| NCI-H23 | 0.635 | 0.373 | 0.344 | 0.129 | 0.116 | 0.697 | 0.746 | 0.389 | 0.165 | 0.119 | 0.426 | 0.5 | 0.403 | 0.155 | 0.123 | 0.922 | 0.836 | 0.688 | 0.167 | 0.125 |
| EMC-BAC-2 | 0.609 | 0.506 | 0.387 | 0.199 | 0.357 | 0.365 | 0.411 | 0.28 | 0.258 | 0.169 | 0.712 | 0.753 | 0.756 | 0.902 | 0.281 | 1.23 | 1.07 | 1.18 | 1.11 | 0.443 |
| LOU-NH91 | 0.86 | 0.735 | 0.547 | 0.482 | 0.336 | 0.535 | 0.421 | 0.359 | 0.295 | 0.273 | 0.666 | 0.624 | 0.516 | 0.365 | 0.353 | 0.608 | 0.525 | 0.32 | 0.332 | 0.297 |
| LU99A | 0.479 | 0.476 | 0.301 | 0.203 | 0.127 | 0.508 | 0.387 | 0.283 | 0.13 | 0.0659 | 0.588 | 0.512 | 0.331 | 0.184 | 0.134 | 0.817 | 0.821 | 0.921 | 0.271 | 0.132 |
| NCI-H1395 | 0.626 | 0.607 | 0.415 | 0.366 | 0.368 | 0.429 | 0.366 | 0.304 | 0.326 | 0.287 |  |  |  |  |  | 1.03 | 1.29 | 0.698 | 0.458 | 0.344 |
| NCI-H520 | 0.75 | 0.662 | 0.433 | 0.174 | 0.181 | 0.241 | 0.236 | 0.21 | 0.169 | 0.121 | 0.924 | 0.663 | 0.492 | 0.112 | 0.0889 | 1.09 | 0.836 | 1.03 | 0.19 | 0.161 |
| 201T | 0.932 | 0.945 | 0.858 | 0.55 | 0.252 | 0.551 | 0.618 | 0.438 | 0.352 | 0.262 | 1.04 | 1.07 | 1.02 | 0.886 | 0.805 | 1.21 | 1.21 | 1.17 | 1.16 | 0.973 |
| NCI-H1944 | 0.486 | 0.506 | 0.397 | 0.257 | 0.134 | 0.198 | 0.199 | 0.175 | 0.158 | 0.15 | 1.01 | 1.18 | 1.02 | 0.799 | 0.289 | 1.05 | 1.05 | 1.02 | 0.948 | 0.372 |
